According to paper PMC7161708 (Acta Pharmaceutica Sinica. B, 2019):
Where “and” joins values, the source holds several entries; their conditions need not be identical. Equal entries are not always repeated. Where two headings read alike, the source gives them in different places.

Experiments:
[1] = from PAMPA–BBB Pe
BV2 cells = assay: Cell viability assay, BV2 cells; type: cell-based; conditions: 24 h; for Cytotoxicity on BV2 cells: 2, 5, 10, 20, 40 μmol/L; for Cell viability of BV2 cells at high concentration: 80, 160 μmol/L
in vitro = conditions: PAMPA
[2] = tested on: phosphorylation of p70S6K; assay: Inhibition of p70S6K phosphorylation, α-screen assay in SH-SY5Y cell; type: cell-based; conditions: mean ± SD (n ≥ 3)
SH-SY5Y cells = assay: Cell viability assay; type: cell-based; conditions: 24 h
Aβ1−40 and Aβ1−42 = assay: Aβ clearance ELISA assay in BV2 cell; type: cell-based; conditions: 5, 10 and 20 μmol/L, 24 h, then 2 μg/mL soluble Aβ for 3 h
Aβ40/42 = Aβ40/42 level in brain of APP/PS1 transgenic mice, ELISA; type: in vivo; conditions: oral, 100 days, compared with TV group
[3] = tested on: APP/PS1 transgenic AD model mice; assay: Nesting test in APP/PS1 transgenic mice; type: in vivo; conditions: 30 mg/kg orally, 100 days, compared with TV group
LC3 II, Beclin 1 and p62 = assay: Western blot of autophagy marker proteins in BV2 cells; type: cell-based; conditions: 24 h
[4] = tested on: phosphorylation of AKT, mTOR, p70S6K and ULK1; assay: Western blot of AKT/mTOR/ULK1 signaling pathway in BV2 cells; type: cell-based; conditions: 20, 10, 5 μmol/L, 24 h
[5] = tested on: APP/PS1 transgenic AD model mice; assay: Morris Water Maze assay in APP/PS1 transgenic mice; type: in vivo; conditions: 100 days, compared with TV group
hERG potassium channels = hERG potassium channels (Homo sapiens, UniProt Q12809); assay: hERG inhibition patch clamp assay
Sequence of hERG potassium channels (Q12809 whole entry): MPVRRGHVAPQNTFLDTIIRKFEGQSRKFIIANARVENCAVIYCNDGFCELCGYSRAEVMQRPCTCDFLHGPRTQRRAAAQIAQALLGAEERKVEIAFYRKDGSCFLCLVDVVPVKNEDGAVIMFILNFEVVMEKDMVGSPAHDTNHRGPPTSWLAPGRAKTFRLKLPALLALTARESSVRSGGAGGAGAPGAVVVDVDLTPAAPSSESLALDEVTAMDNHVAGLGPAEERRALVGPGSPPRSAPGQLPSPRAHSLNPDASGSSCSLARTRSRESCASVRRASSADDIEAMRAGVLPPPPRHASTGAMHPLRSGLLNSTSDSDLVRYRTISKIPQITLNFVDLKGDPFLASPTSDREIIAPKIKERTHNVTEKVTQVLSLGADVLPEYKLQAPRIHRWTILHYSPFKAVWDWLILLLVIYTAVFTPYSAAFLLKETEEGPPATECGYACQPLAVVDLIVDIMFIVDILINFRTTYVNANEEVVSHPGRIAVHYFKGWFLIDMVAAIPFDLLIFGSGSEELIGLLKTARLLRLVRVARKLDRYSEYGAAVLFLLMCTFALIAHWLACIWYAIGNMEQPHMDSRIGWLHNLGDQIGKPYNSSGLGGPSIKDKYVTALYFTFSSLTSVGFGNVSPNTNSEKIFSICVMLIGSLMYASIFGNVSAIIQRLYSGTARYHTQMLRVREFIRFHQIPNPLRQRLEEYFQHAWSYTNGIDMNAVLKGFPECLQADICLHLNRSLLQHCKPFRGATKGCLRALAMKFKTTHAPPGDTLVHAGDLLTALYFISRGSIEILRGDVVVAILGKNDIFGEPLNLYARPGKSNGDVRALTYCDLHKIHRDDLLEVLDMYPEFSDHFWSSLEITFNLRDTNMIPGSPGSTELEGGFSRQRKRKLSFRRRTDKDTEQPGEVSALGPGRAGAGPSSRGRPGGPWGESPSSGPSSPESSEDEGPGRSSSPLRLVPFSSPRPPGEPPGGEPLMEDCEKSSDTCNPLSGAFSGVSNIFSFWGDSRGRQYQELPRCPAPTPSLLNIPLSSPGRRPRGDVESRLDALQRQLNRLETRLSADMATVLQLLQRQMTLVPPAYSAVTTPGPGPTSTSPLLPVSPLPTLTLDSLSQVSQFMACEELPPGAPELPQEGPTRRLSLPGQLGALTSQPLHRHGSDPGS

[6] = tested on: p70S6K and tau phosphorylation; type: in vivo; conditions: APP/PS1 transgenic mice
[7] = tested on: phosphorylation of tau protein; assay: Tau phosphorylation Western blot in SH-SY5Y cell; type: cell-based; conditions: 5, 10 and 20 μmol/L, 24 h
autophagy in BV2 cells = assay: Autophagic flux assay; type: cell-based; conditions: 20 μmol/L, 24 h, compared with the control group

Structure (SMILES)	Prediction of BBB penetration [1]	Papp at 10 h, 100 μg/mL (in vitro) [×10⁻⁶ cm/s]	Inhibition ratio of p70S6K phosphorylation at 20 μmol/L (%) [2]	also measured
CC(=O)Oc1ccccc1C(=O)Nc1ncc(N2CCOCC2)s1 [Compound 12, 2-Acetyloxy-N-(5-morpholinothiazol-2-yl)benzamide]	CNS+ (Compounds with permeabilities Pe > 3.08 × 10^−6 cm/s could cross the BBB by passive diffusion (CNS+))	5.76 ± 0.57	85.20% and 85.20±1.76%	Concentration at which viability of BV2 cells began to decrease (BV2 cells): 20 µM; Concentration at which viability of SH-SY5Y cells decreased (SH-SY5Y cells): 5 µM
CC(=O)Oc1cccc(C(=O)Nc2ncc(N3CCOCC3)s2)c1 [Compound 22, 3-Acetyloxy-N-(5-morpholinothiazol-2-yl)benzamide]	CNS+ (Compounds with permeabilities Pe > 3.08 × 10^−6 cm/s could cross the BBB by passive diffusion (CNS+))	6.02 ± 0.27	88.95% and 88.95±0.78%	Aβ1−40 and Aβ1−42 content in the cell (ELISA) (Aβ1−40 and Aβ1−42): dose-dependently decreased both Aβ1−40 and Aβ1−42 content; Aβ40/42 level in cerebral cortex and hippocampus (ELISA) (Aβ40/42): significantly reduced Aβ40/42 level; Nesting test [3]: obvious improvement in nesting test; Cytotoxicity on BV2 cells (BV2 cells): no cytotoxicity; Cell viability of BV2 cells at high concentration (BV2 cells): decreased; Protein levels of Beclin 1, LC3 II and p62 (Western blot) (LC3 II, Beclin 1 and p62): upregulate the protein levels of Beclin 1 and LC3 II, and decrease the p62 protein level; Cytotoxicity on SH-SY5Y cells (SH-SY5Y cells): low cytotoxicity; Phosphorylation of AKT, mTOR, p70S6K (Western blot) [4]: dose-dependently suppressed the phosphorylation of AKT, mTOR, p70S6K; ULK1 phosphorylation at Ser 757 (Western blot) [4]: decreased ULK1 phosphorylation at Ser 757; Escape latencies in MWM assay ([5]; 10 mg/kg orally): significantly reduced the escape latencies; Crossing times in MWM probe trial ([5]; 30 mg/kg orally): significantly increased the crossing times; Escape latencies in MWM assay ([5]; 30 mg/kg orally): significantly reduced the escape latencies; IC50 (hERG potassium channels): > 40 µM; p70S6K phosphorylation level in the cortex (Western blot) ([6]; 10 mg/kg): significantly reduce the p70S6K phosphorylation level; p70S6K phosphorylation level in the cortex (Western blot) ([6]; 30 mg/kg): significantly reduce the p70S6K phosphorylation level; Tau phosphorylation at Ser199, 396 and Tyr231 (Western blot) [7]: dose-dependently inhibited tau phosphorylation; Numbers of yellow and red mTagRFP-mWasabi-LC3 puncta (autophagy in BV2 cells): increased the numbers of both yellow and red puncta
O=C(Nc1ncc(N2CCOCC2)s1)c1ccco1 [Compound 32, N-(5-Morpholinothiazol-2-yl)furan-2-carboxamide]	CNS+ (Compounds with permeabilities Pe > 3.08 × 10^−6 cm/s could cross the BBB by passive diffusion (CNS+))	6.16 ± 0.5	81.09±4.27%	–
O=C(Nc1ncc(N2CCOCC2)s1)c1cccs1 [Compound 33, N-(5-Morpholinothiazol-2-yl)thiophene-2-carboxamide]	CNS+ (Compounds with permeabilities Pe > 3.08 × 10^−6 cm/s could cross the BBB by passive diffusion (CNS+))	10.4 ± 1.25	79.80±5.03%	–
O=C(Nc1ncc(N2CCOCC2)s1)c1ccoc1 [Compound 34, N-(5-Morpholinothiazol-2-yl)furan-3-carboxamide]	CNS+ (Compounds with permeabilities Pe > 3.08 × 10^−6 cm/s could cross the BBB by passive diffusion (CNS+))	6.82 ± 0.5	80.23±0.88%	–
O=C(Nc1ncc(N2CCOCC2)s1)c1ccsc1 [Compound 35, N-(5-Morpholinothiazol-2-yl)thiophene-3-carboxamide]	CNS+ (Compounds with permeabilities Pe > 3.08 × 10^−6 cm/s could cross the BBB by passive diffusion (CNS+))	9.24 ± 0.47	79.84±1.17%	–
O=C(Nc1ncc(N2CCOCC2)s1)c1ccc(Cl)s1 [Compound 36, 5-Chloro-N-(5-morpholinothiazol-2-yl)thiophene-2-carboxamide]	CNS+ (Compounds with permeabilities Pe > 3.08 × 10^−6 cm/s could cross the BBB by passive diffusion (CNS+))	10.62 ± 0.1	83.32±0.41%	Cytotoxicity on BV2 cells (BV2 cells): no cytotoxicity; Cell viability of BV2 cells at high concentration (BV2 cells): decreased; Protein levels of Beclin 1, LC3 II and p62 (Western blot) (LC3 II, Beclin 1 and p62): upregulate the protein levels of Beclin 1 and LC3 II, and decrease the p62 protein level; Cytotoxicity on SH-SY5Y cells (SH-SY5Y cells): low cytotoxicity; Phosphorylation of AKT, mTOR, p70S6K (Western blot) [4]: effectively inhibit the phosphorylation of AKT, mTOR, and p70S6K; ULK1 phosphorylation at Ser 757 (Western blot) [4]: no effect on the ULK1 phosphorylation; Numbers of yellow and red mTagRFP-mWasabi-LC3 puncta (autophagy in BV2 cells): increased the numbers of both yellow and red puncta
Cc1ccc(C(=O)Nc2ncc(N3CCOCC3)s2)s1 [Compound 37, 5-Methyl-N-(5-morpholinothiazol-2-yl)thiophene-2-carboxamide]	CNS+ (Compounds with permeabilities Pe > 3.08 × 10^−6 cm/s could cross the BBB by passive diffusion (CNS+))	9.89 ± 0.37	81.20±1.60%	–
Cc1ccsc1C(=O)Nc1ncc(N2CCOCC2)s1 [Compound 38, 3-Methyl-N-(5-morpholinothiazol-2-yl)thiophene-2-carboxamide]	CNS+ (Compounds with permeabilities Pe > 3.08 × 10^−6 cm/s could cross the BBB by passive diffusion (CNS+))	9.88 ± 0.75	80.32±0.71%	–
O=C(CCc1ccccc1)Nc1ncc(N2CCOCC2)s1 [Compound 52, N-(5-Morpholinothiazol-2-yl)-3-phenylpropanamide]	CNS+ (Compounds with permeabilities Pe > 3.08 × 10^−6 cm/s could cross the BBB by passive diffusion (CNS+))	10.5 ± 1.13	81.60±1.86%	–
CC(=O)Oc1ccccc1C(=O)Nc1ncc([N+](=O)[O-])s1 [NTZ, nitazoxanide, reference compound]	–	1.26 ± 0.21	–	Nesting test [3]: obvious improvement in nesting test; Escape latencies in MWM assay ([5]; 30 mg/kg orally): significantly shortened the escape latencies
